Measurements: US10647738B2, “Xylene-based amphiphilic compound and use thereof” (Industry-University Cooperation Foundation Hanyang …, priority 2016, dated 2020)
Several values for one entry are separate records, joined by “and”; a condition that tells them apart may be missing. Identical values can stand only once.

How the values were obtained:
[1] = Critical micelle concentration by fluorescence staining with diphenylhexatriene (DPH); format: physicochemical; conditions: aqueous solution
Method: While a method for measuring CMC is not particularly limited, a method widely known in the art may be used, and the measurement may be performed by, for example, a fluorescence staining method using diphenylhexatriene (DPH).
(§1) Specifically, the critical micellar concentration (CMC) was measured using fluorescence staining and diphenylhexatriene (DPH), and the hydrodynamic radii (Rh) of the micelles formed by agents were measured through a dynamic light scattering (DLS) experiment. The measured results are shown in Tables 1 and 2, compared with a conventional amphiphilic molecule (detergent), DDM.

[2] = Hydrodynamic radius and size distribution of micelles by dynamic light scattering (DLS); format: physicochemical; conditions: for Rh (nm), hydrodynamic radius of micelles: 1.0 wt % stated for M-/O-XMAs (FIG. 37); for size distribution of micelles (number of micelle sets): FIGS. 36 and 37
Method: A method for measuring the radius of a micelle is not particularly limited, but a method well known in the art may be used, and for example, the measurement may be performed using a dynamic light scattering (DLS) experiment.
as §1

[3] = target: T1, melibiose permease (MelB) (Salmonella typhimurium, UniProt P30878); assay: MelB extraction from membranes and thermostability, SDS-PAGE and western blotting; conditions: for MelBSt stabilization ability compared with DDM: 1.5 wt % detergent, 0, 45, 55 and 65° C.
T1 construct: made in house; host or cells: Salmonella typhimurium DW2 cells (ΔmelB and ΔlacZY) (so in the source); membrane preparation
Method: An experiment for measuring the structural stability of the Salmonella typhimurium melibiose permease (MelB) protein due to XMAs was performed. The MelB protein was extracted on a membrane using XMAs and DDM, and the amount and structure of the extracted protein were analyzed by SDS-PAGE and western blotting. A concentration of the used compound was 1.5 wt %, and the protein was extracted at a different temperature (0, 45, 55, or 65° C.) to evaluate two kinds of performance such as protein extraction efficiency and stabilization ability of the compound at the same time. Membrane samples that were not treated with XMAs or DDM were used as controls.
Specifically, MelBSt stability due to DDM and XMAs was evaluated according to the method described in the paper (P. S. Chae, et al., Nat. Methods 2010, 7, 1003-1008) written by the inventor in 2010. The protein (MelBSt) was produced using plasmid pK95ΔAHB/WT MelBSt/CH10 encoding wild-type MelB with a 10-His tag at the C-terminus and Salmonella typhimurium DW2 cells (ΔmelB and ΔlacZY). Cell growth and membrane preparation were carried out according to the method described in the paper (Nat. Commun. 2014, 5, 3009) written by A. S. Ethayathulla et al. A protein assay was performed using a Micro BCA kit (Thermo Scientific, Rockford, Ill.). To measure solubilization/stability, MelBSt-containing membrane samples (final protein concentration of 10 mg/mL) were incubated with a solubilization buffer (20 mM sodium phosphate, pH 7.5, 200 mM NaCl, 10% glycerol, 20 mM melibiose) and 1.5% (w/v) DDM, P-XMAs (P-XMA-C8, P-XMA-C9, P-XMA-C10, P-XMA-C11 and P-XMA-C12), M-XMAs (M-XMA-C11, M-XMA-C12, M-XMA-C14, M-XMA-C16 and M-XMA-C18) or O-XMAs (O-XMA-C11, O-XMA-C12, O-XMA-C14, O-XMA-C16 and O-XMA-C18) at four different temperatures (0, 45, 55 and 65° C.) for 90 minutes. Following ultracentrifugation at 355,590 g in a Beckman Optima™ MAX ultracentrifuge using a TLA-100 rotor for 45 minutes at 4° C., 20 μg proteins were separated by SDS-16% PAGE, and then immunoblotted with a Penta-His-HRP antibody (Qiagen, Germantown, Md.). MelBSt was detected using a SuperSignal West Pico chemiluminescent substrate by an ImageQuant LAS 4000 Biomolecular Imager (GE Health Care Life Sciences).

[4] = 1.5 wt % detergent, 55° C., 90 minutes
[5] = 1.5 wt % detergent, 0° C., 90 minutes
[6] = 1.5 wt % detergent, 45° C., 90 minutes

T1 sequence (P30878 whole entry): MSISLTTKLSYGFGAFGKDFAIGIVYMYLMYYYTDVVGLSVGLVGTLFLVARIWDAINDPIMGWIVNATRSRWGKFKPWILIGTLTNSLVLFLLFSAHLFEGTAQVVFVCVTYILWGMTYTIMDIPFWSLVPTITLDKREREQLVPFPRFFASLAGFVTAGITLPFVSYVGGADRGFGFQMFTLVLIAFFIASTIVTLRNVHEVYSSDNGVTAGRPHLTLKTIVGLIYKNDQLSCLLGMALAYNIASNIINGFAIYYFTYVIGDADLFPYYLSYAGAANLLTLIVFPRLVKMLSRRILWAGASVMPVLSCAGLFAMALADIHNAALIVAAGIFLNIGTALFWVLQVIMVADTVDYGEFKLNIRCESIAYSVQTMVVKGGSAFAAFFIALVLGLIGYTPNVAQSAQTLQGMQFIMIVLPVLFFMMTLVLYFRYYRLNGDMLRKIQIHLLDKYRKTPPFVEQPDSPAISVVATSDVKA

SMILES	CMC [1] [µM]	CMC (wt %) [1] [wt %]	Rh (nm), hydrodynamic radius of micelles [2]	solubilized MelB retained, percentage of total protein in untreated membrane sample ([3]; 1.5 wt % detergent, 55° C.)	MelB protein extraction / maintained solubilization [3, 4]	MelB protein extraction efficiency [3, 5]	micelle size compared with DDM [2]	size distribution of micelles (number of micelle sets) [2]	MelBSt stabilization ability compared with DDM [3]	MelB protein extraction efficiency [3, 6]	MelB protein extraction ([3]; 1.5 wt % detergent, 65° C., 90 minutes)
CCCCCCCCCCCCCCC(CO[C@@H]1OC(CO)[C@@H](O[C@H]2OC(CO)[C@@H](O)C(O)C2O)C(O)C1O)(CO[C@@H]1OC(CO)[C@@H](O[C@H]2OC(CO)[C@@H](O)C(O)C2O)C(O)C1O)Cc1cccc(C[C@](CCCCCCCCCCCCCC)(CO[C@@H]2OC(CO)[C@@H](O[C@H]3OC(CO)[C@@H](O)C(O)C3O)C(O)C2O)CO[C@@H]2OC(CO)[C@@H](O[C@@H]3OC(CO)[C@@H](O)C(O)C3O)C(O)C2O)c1 (stereo partly shown) [M-XMA-C14]	~2.5	~0.0005	3.6 ± 0.07 nm	approximately 70%	most effective	–	–	–	–	–	–
CCCCCCCCCCCCCCCC[C@@](CO[C@@H]1OC(CO)[C@@H](O[C@H]2OC(CO)[C@@H](O)C(O)C2O)C(O)C1O)(CO[C@@H]1OC(CO)[C@@H](O[C@@H]2OC(CO)[C@@H](O)C(O)C2O)C(O)C1O)Cc1cccc(C[C@](CCCCCCCCCCCCCCCC)(CO[C@@H]2OC(CO)[C@@H](O[C@H]3OC(CO)[C@@H](O)C(O)C3O)C(O)C2O)CO[C@@H]2CC(CO)[C@@H](O[C@H]3OC(CO)[C@@H](O)C(O)C3O)C(O)C2O)c1 (stereo partly shown) [M-XMA-C16]	~2.0	~0.0004	3.9 ± 0.04 nm	–	–	protein extraction efficiency at almost the same level as DDM	–	–	–	–	–
CCCCCCCCCCCCCCCCCCC(CO[C@@H]1OC(CO)[C@@H](O[C@@H]2OC(CO)[C@@H](O)C(O)C2O)C(O)C1O)(CO[C@@H]1OC(CO)[C@@H](O[C@@H]2OC(CO)[C@@H](O)C(O)C2O)C(O)C1O)Cc1cccc(CC(CCCCCCCCCCCCCCCCCC)(CO[C@@H]2OC(CO)[C@@H](O[C@@H]3OC(CO)[C@@H](O)C(O)C3O)C(O)C2O)CO[C@@H]2OC(CO)[C@@H](O[C@@H]3OC(CO)[C@@H](O)C(O)C3O)C(O)C2O)c1 (stereo partly shown) [M-XMA-C18]	~1.5	~0.0003	4.1 ± 0.04 nm	–	–	protein extraction efficiency at almost the same level as DDM	–	–	–	–	–
CCCCCCCCCCCC(CO[C@@H]1OC(CO)[C@@H](O[C@@H]2OC(CO)[C@@H](O)C(O)C2O)C(O)C1O)(CO[C@@H]1OC(CO)[C@@H](O[C@@H]2OC(CO)[C@@H](O)C(O)C2O)C(O)C1O)Cc1ccccc1C[C@](CCCCCCCCCCC)(CO[C@@H]1OC(CO)[C@@H](O[C@H]2OC(CO)[C@@H](O)C(O)C2O)C(O)C1O)CO[C@@H]1OC(CO)[C@@H](O[C@@H]2OC(CO)[C@@H](O)C(O)C2O)C(O)C1O (stereo partly shown) [O-XMA-C11]	–	~0.0019	3.0 ± 0.02 nm	–	–	–	–	–	–	–	–
CCCCCCCCCCCCCCC(CO[C@@H]1OC(CO)[C@@H](O[C@@H]2OC(CO)[C@@H](O)C(O)C2O)C(O)C1O)(CO[C@@H]1OC(CO)[C@@H](O[C@@H]2OC(CO)[C@@H](O)C(O)C2O)C(O)C1O)Cc1ccccc1CC(CCCCCCCCCCCCCC)(CO[C@@H]1OC(CO)[C@@H](O[C@@H]2OC(CO)[C@@H](O)C(O)C2O)C(O)C1O)CO[C@@H]1OC(CO)[C@@H](O[C@@H]2OC(CO)[C@@H](O)C(O)C2O)C(O)C1O (stereo partly shown) [O-XMA-C14]	~3.0	~0.0006	3.5 ± 0.04 nm	–	–	–	–	–	–	–	–
CCCCCCCCCCCCCCCCC(CO[C@@H]1OC(CO)[C@@H](O[C@@H]2OC(CO)[C@@H](O)C(O)C2O)C(O)C1O)(CO[C@@H]1OC(CO)[C@@H](O[C@@H]2OC(CO)[C@@H](O)C(O)C2O)C(O)C1O)Cc1ccccc1CC(CCCCCCCCCCCCCCCC)(CO[C@@H]1OC(CO)[C@@H](O[C@@H]2OC(CO)[C@@H](O)C(O)C2O)C(O)C1O)CO[C@@H]1OC(CO)[C@@H](O[C@@H]2OC(CO)[C@@H](O)C(O)C2O)C(O)C1O (stereo partly shown) [O-XMA-C16]	~2.0	~0.0004	3.9 ± 0.06 nm	–	–	–	–	–	–	–	–
CCCCCCCCCCCCCCCCCCC(CO[C@@H]1OC(CO)[C@@H](O[C@@H]2OC(CO)[C@@H](O)C(O)C2O)C(O)C1O)(CO[C@@H]1OC(CO)[C@@H](O[C@@H]2OC(CO)[C@@H](O)C(O)C2O)C(O)C1O)Cc1ccccc1CC(CCCCCCCCCCCCCCCCCC)(CO[C@@H]1OC(CO)[C@@H](O[C@@H]2OC(CO)[C@@H](O)C(O)C2O)C(O)C1O)CO[C@@H]1OC(CO)[C@@H](O[C@@H]2OC(CO)[C@@H](O)C(O)C2O)C(O)C1O (stereo partly shown) [O-XMA-C18]	–	~0.0003	3.9 ± 0.04 nm	–	–	–	–	–	–	–	–
CCCCCCCCC(CO[C@@H]1OC(CO)[C@@H](O[C@H]2OC(CO)[C@@H](O)C(O)C2O)C(O)C1O)(CO[C@@H]1OC(CO)[C@@H](O[C@H]2OC(CO)[C@@H](O)C(O)C2O)C(O)C1O)Cc1ccc(C[C@](CCCCCCCC)(CO[C@H]2CC(O)[C@H](O[C@H]3OC(CO)[C@@H](O)C(O)C3O)C(CO)O2)CO[C@@H]2OC(CO)[C@@H](O[C@H]3OC(CO)[C@@H](O)C(O)C3O)C(O)C2O)cc1 (stereo partly shown) [P-XMA-C8]	–	~0.004	2.7 nm and 2.7 ± 0.04 nm	–	–	–	smaller than DDM	one set of micelles	–	–	–
CCCCCCCCCC(CO[C@@H]1OC(CO)[C@@H](O[C@H]2OC(CO)[C@@H](O)C(O)C2O)C(O)C1O)(CO[C@@H]1OC(CO)[C@@H](O[C@H]2OC(CO)[C@@H](O)C(O)C2O)C(O)C1O)Cc1ccc(CC(CCCCCCCCC)(CO[C@@H]2OC(CO)[C@@H](O[C@H]3OC(CO)[C@@H](O)C(O)C3O)C(O)C2O)CO[C@@H]2OC(CO)[C@@H](O[C@H]3OC(CO)[C@@H](O)C(O)C3O)C(O)C2O)cc1 (stereo partly shown) [P-XMA-C9]	~10	~0.002	3.2 ± 0.01 nm	–	higher MelBSt extraction ability than DDM	–	smaller than DDM	one set of micelles	higher MelBSt stabilization ability than DDM	extraction efficiency at the same level as DDM	–
CCCCCCCCCCC(CO[C@@H]1OC(CO)[C@@H](O[C@H]2OC(CO)[C@@H](O)C(O)C2O)C(O)C1O)(CO[C@@H]1OC(CO)[C@@H](O[C@H]2OC(CO)[C@@H](O)C(O)C2O)C(O)C1O)Cc1ccc(CC(CCCCCCCCCC)(CO[C@@H]2OC(CO)[C@@H](O[C@H]3OC(CO)[C@@H](O)C(O)C3O)C(O)C2O)CO[C@@H]2OC(CO)[C@@H](O[C@H]3OC(CO)[C@@H](O)C(O)C3O)C(O)C2O)cc1 (stereo partly shown) [P-XMA-C10]	~7	~0.001	3.5 ± 0.01 nm	–	higher MelBSt extraction ability than DDM	–	–	two sets of micelles having different radii	higher MelBSt stabilization ability than DDM	extraction efficiency at the same level as DDM	extracted MelBSt
